Numbers after ± are expanded uncertainties.
Test: mn = molality of the nth substance listed, in mol/kg
Conditions: Liquid, Vibrating tube method

[Br-].[Li+] [lithium bromide] + CCO
Conditions	mass density [kg/m3]
333.09 K, 10272 kPa, m1 = 2.272	902.05 ± 1.8
333.1 K, 20223 kPa, m1 = 1.462	864.16 ± 1.7
333.11 K, 2291 kPa, m1 = 1.462	848.63 ± 1.7
333.11 K, 9932 kPa, m1 = 1.462	855.51 ± 1.7
333.11 K, 29979 kPa, m1 = 1.462	871.75 ± 1.8
333.12 K, 5163 kPa, m1 = 1.462	851.27 ± 1.7
333.12 K, 39966 kPa, m1 = 1.462	878.97 ± 1.8
333.12 K, 49993 kPa, m1 = 1.462	885.74 ± 1.8
333.12 K, 59791 kPa, m1 = 1.462	891.94 ± 1.8
333.12 K, 69993 kPa, m1 = 1.462	898.03 ± 1.8
333.12 K, 79815 kPa, m1 = 1.462	903.61 ± 1.9
333.12 K, 89925 kPa, m1 = 1.462	909.13 ± 1.9
333.12 K, 100027 kPa, m1 = 1.462	914.48 ± 1.9
333.13 K, 2335 kPa, m1 = 2.272	895.03 ± 1.8
333.13 K, 10112 kPa, m1 = 0.5972	803.35 ± 1.6
333.13 K, 79924 kPa, m1 = 0.2335	831.2 ± 1.8
333.14 K, 1023 kPa, m1 = 0.2335	771.66 ± 1.6
333.14 K, 1618 kPa, m1 = 3.368	952.85 ± 1.9
333.14 K, 5026 kPa, m1 = 2.833	927.9 ± 1.9
333.14 K, 19985 kPa, m1 = 0.2335	789.05 ± 1.6
333.14 K, 40021 kPa, m1 = 2.833	953.59 ± 1.9
333.14 K, 80002 kPa, m1 = 2.833	976.7 ± 2
333.15 K, 1032 kPa, m1 = 2.833	924.49 ± 1.9
333.15 K, 1267 kPa, m1 = 0.9499	816.76 ± 1.6
333.15 K, 1305 kPa, m1 = 0.9499	816.8 ± 1.6
333.15 K, 2100 kPa, m1 = 0.5972	796.01 ± 1.6
333.15 K, 5177 kPa, m1 = 2.272	897.13 ± 1.8
333.15 K, 5214 kPa, m1 = 0.9499	820.56 ± 1.6
333.15 K, 5223 kPa, m1 = 0.5972	798.91 ± 1.6
333.15 K, 9985 kPa, m1 = 2.833	931.98 ± 1.9
333.15 K, 10026 kPa, m1 = 0.2335	780.15 ± 1.6
333.15 K, 19923 kPa, m1 = 0.9499	833.66 ± 1.7
333.15 K, 29942 kPa, m1 = 0.9499	841.73 ± 1.7
333.15 K, 29965 kPa, m1 = 2.833	946.88 ± 1.9
333.15 K, 40014 kPa, m1 = 0.9499	849.24 ± 1.7
333.15 K, 49925 kPa, m1 = 2.833	959.77 ± 1.9
333.15 K, 50021 kPa, m1 = 0.2335	812.76 ± 1.7
333.15 K, 50078 kPa, m1 = 0.9499	856.2 ± 1.8
333.15 K, 59924 kPa, m1 = 0.9499	862.57 ± 1.8
333.15 K, 60012 kPa, m1 = 0.2335	819.01 ± 1.7
333.15 K, 60159 kPa, m1 = 0.5972	841.68 ± 1.7
333.15 K, 69784 kPa, m1 = 2.833	971.18 ± 1.9
333.15 K, 69794 kPa, m1 = 0.9499	868.58 ± 1.8
333.15 K, 69985 kPa, m1 = 0.2335	825.32 ± 1.7
333.15 K, 79935 kPa, m1 = 0.9499	874.45 ± 1.8
333.15 K, 89956 kPa, m1 = 2.833	981.93 ± 2
333.15 K, 89965 kPa, m1 = 0.2335	837.01 ± 1.8
333.15 K, 89984 kPa, m1 = 0.9499	880.02 ± 1.8
333.15 K, 99907 kPa, m1 = 2.272	958.17 ± 1.9
333.15 K, 99958 kPa, m1 = 0.2335	842.17 ± 1.8
333.15 K, 99967 kPa, m1 = 2.833	987.14 ± 2
333.15 K, 99986 kPa, m1 = 0.9499	885.41 ± 1.9
333.16 K, 5021 kPa, m1 = 0.2335	775.49 ± 1.6
333.16 K, 19968 kPa, m1 = 2.833	939.71 ± 1.9
333.16 K, 20295 kPa, m1 = 0.5972	812.23 ± 1.6
333.16 K, 29945 kPa, m1 = 0.2335	797.44 ± 1.6
333.16 K, 29996 kPa, m1 = 0.5972	820.22 ± 1.7
333.16 K, 49994 kPa, m1 = 0.5972	835.21 ± 1.7
333.16 K, 59945 kPa, m1 = 2.833	965.67 ± 1.9
333.16 K, 69994 kPa, m1 = 0.5972	847.73 ± 1.8
333.16 K, 80063 kPa, m1 = 0.5972	854.04 ± 1.8
333.16 K, 89993 kPa, m1 = 0.5972	859.28 ± 1.8
333.16 K, 100035 kPa, m1 = 0.5972	864.08 ± 1.8
333.17 K, 39784 kPa, m1 = 0.2335	805.21 ± 1.7
333.17 K, 40191 kPa, m1 = 0.5972	828.11 ± 1.7
333.17 K, 89994 kPa, m1 = 2.272	952.98 ± 1.9
333.17 K, 99575 kPa, m1 = 3.368	1013.64 ± 2.1
333.18 K, 19918 kPa, m1 = 3.368	967.06 ± 1.9
333.18 K, 20737 kPa, m1 = 2.272	910.39 ± 1.8
333.18 K, 29946 kPa, m1 = 3.368	974.09 ± 1.9
333.18 K, 29993 kPa, m1 = 2.272	917.22 ± 1.8
333.18 K, 39652 kPa, m1 = 3.368	980.47 ± 2
333.18 K, 40158 kPa, m1 = 2.272	924.19 ± 1.9
333.18 K, 49954 kPa, m1 = 2.272	930.45 ± 1.9
333.18 K, 49993 kPa, m1 = 3.368	986.85 ± 2
333.18 K, 59593 kPa, m1 = 3.368	992.46 ± 2
333.18 K, 60271 kPa, m1 = 2.272	936.65 ± 1.9
333.18 K, 69927 kPa, m1 = 3.368	998.21 ± 2
333.18 K, 69979 kPa, m1 = 2.272	942.19 ± 1.9
333.18 K, 79359 kPa, m1 = 2.272	947.33 ± 1.9
333.18 K, 79861 kPa, m1 = 3.368	1003.51 ± 2
333.18 K, 89946 kPa, m1 = 3.368	1008.74 ± 2
333.19 K, 5051 kPa, m1 = 3.368	955.66 ± 1.9
333.19 K, 9894 kPa, m1 = 3.368	959.51 ± 1.9
348.13 K, 29954 kPa, m1 = 0.2335	785.62 ± 1.6
348.13 K, 59964 kPa, m1 = 2.833	956.11 ± 1.9
348.14 K, 9989 kPa, m1 = 2.833	920.29 ± 1.8
348.14 K, 10032 kPa, m1 = 0.2335	766.83 ± 1.6
348.14 K, 10035 kPa, m1 = 0.5972	790.37 ± 1.6
348.14 K, 19956 kPa, m1 = 2.272	898.47 ± 1.8
348.14 K, 19956 kPa, m1 = 3.368	955.83 ± 1.9
348.14 K, 29914 kPa, m1 = 0.5972	809.07 ± 1.6
348.14 K, 30021 kPa, m1 = 1.462	860.82 ± 1.7
348.14 K, 39925 kPa, m1 = 2.272	913.47 ± 1.8
348.14 K, 50012 kPa, m1 = 0.5972	824.77 ± 1.7
348.14 K, 69957 kPa, m1 = 3.368	988.75 ± 2
348.14 K, 79624 kPa, m1 = 2.272	938.32 ± 1.9
348.14 K, 89957 kPa, m1 = 0.5972	850.38 ± 1.8
348.15 K, 1002 kPa, m1 = 0.5972	781.38 ± 1.6
348.15 K, 1002 kPa, m1 = 3.368	940.13 ± 1.9
348.15 K, 1003 kPa, m1 = 2.272	881.25 ± 1.8
348.15 K, 1024 kPa, m1 = 0.2335	757.55 ± 1.5
348.15 K, 1035 kPa, m1 = 2.833	912.41 ± 1.8
348.15 K, 1304 kPa, m1 = 0.9499	803.97 ± 1.6
348.15 K, 2021 kPa, m1 = 1.462	835.77 ± 1.7

Source: the NIST ThermoML archive (doi:10.1021/je1003065)
